# “Also recorded” adds a separate entry of the source.
# How the values were obtained:
# human LOX-1 = human LOX-1 (Homo sapiens, UniProt P78380); test: Thermal shift assay with purified LOX-1 protein; format: binding; parameters: It encodes for 147 amino acids for the LOX-1 fragment (residues 136-273); made in house; host or cells: E. coli BL21 (DE3), co-expressed with DsbC; settings: for thermal shift (in words): differential scanning fluorimetry; for thermal shift of LOX-1 protein: LOX-1 protein 4 μM, ligand 50 μM, shifts in Celsius
# Excerpt: FIG. 2A, FIG. 2B and FIG. 2C depict the docking of the 5 lead compounds and the thermal denaturation assay: (FIG. 2A) The figure depicts the docking of the 5 lead compounds in the binding pocket of LOX-1. LOX-1 is shown as a ribbon model with one monomer in magenta and the other in blue. The compounds are shown as stick models in separate colors. (FIG. 2B) Hydrogen bonding interactions of the compounds as they dock to LOX-1. (FIG. 2C) The measured thermal shifts (in Celsius) are depicted for all five molecules. The solutions contained LOX-1 protein at 4 μM concentration. The ligand concentrations were 50 μM.
# As the next step, a protein assay was performed to assess the interaction of the lead compounds with LOX-1 protein for an additional confirmation of the binding to LOX1. The extracellular domain of LOX-1 was expressed and the protein was purified. Using the purified protein, a thermal shift assay was performed. The technique involves measuring thermal denaturation temperatures of the protein in the presence and absence of inhibitors. A larger shift in thermal denaturation is indicative of a tight binding of the ligand to the protein.
# In short, the thermal shift assay was performed using a real-time PCR detection system with the fluorescent dye sypro orange to monitor protein unfolding. Fluorescence increases upon protein unfolding because sypro orange has higher quantum in lower dielectric medium and low quantum in higher dielectric medium. During the thermal shift assay a protein exposes the hydrophobic region which corresponds to a lower dielectric environment. The thermal shift assay instrument contains accurate temperature control devices and a CCD detector for simultaneous imaging of fluorescence changes in the microplate. The typical reaction volume of a thermal shift assay is 20 μl, which includes the protein solution, the test compound solution, and the sypro orange. The temperature in the real-time PCR machine during the thermal shift assay was ramped 0.5° C./minute till 100° C.
# The C-terminal domain of LOX-1 was expressed by using the protocols reported earlier^12. As this domain contains several disulfide bridges, it was co-expressed with DsbC, a Chaperone disulfide isomerase. The genes were custom synthesized by Genscript (Piscataway, N.J.) using gene map described in Park el al^12. It encodes for 147 amino acids for the LOX-1 fragment (residues 136-273) and 236 amino acids for DsbC. The gene was incorporated into a pET15b vectors by Genscript. The vectors were then transformed into Dh5α cells for amplification and BL21 (DE3) E. coli (Novagen) cells for expression. The proteins were expressed by adding 0.4 mM isopropyl β-D-thiogalactoside in E. coli cells grown in LB medium containing kanamycin, tetracycline, and carbenicillin at 23° C., with 250 rpm agitation, for 20 h. The protein was purified using a nickel-nitrilotriacetic acid column (Qiagen, Valencia, Calif.). And then, the protein samples were concentrated to 10 mg/ml.
# LOX-1 protein was incubated with fluorescent dye Sypro Orange (Invitrogen/Life Technologies, Grand Island, N.Y.) and the thermal unfolding of the LOX-1 protein was monitored by measuring the fluorescence using Bio-Rad Real Time PCR machine. We measured the melting temperatures in the absence and presence of the inhibitors 4 tM of LOX-1 protein was incubated with Sypro Orange and heated in stepwise increments of 0.5° C. per min from 25-99° C. The wavelength for excitation was set to 490 and emission was set to 575 nm for Sypro Orange. Fluorescence was measured after every minute for each 0.5° C. increase.
# [1] = tested on: VCAM-1 protein expression; test: ox-LDL-induced VCAM-1 protein expression in HUVECs (Western blotting); format: cell-based, human; settings: 200 nM, 5 μg/ml ox-LDL
# Procedure: FIG. 4A, FIG. 4B, FIG. 4C, FIG. 4D and FIG. 4E depict the effect of lead molecules on ox-LDL-induced the activation of MAPKs in HUVECs, VCAM-1 expression and monocyte adhesion onto HUVECs. […] (FIG. 4B) Western blot analyses showing phospho-p38MAPK expression in HUVECs following exposure to 200 nM of each compound for 30 min, and subsequently exposed to 5 μg/mL ox-LDL for 6 hours. […] (FIG. 4D) The variation of VCAM-1 mRNA expression levels with different concentrations of the led compounds. The concentrations are indicated on the X-axis and the VCAM-1 mRNA levels are shown on the Y-axis. The plots for all five molecules are shown in separate colors. […] Graphs show data as mean (±SD); n=3 (for Western blot and PCR assays) or n=20 (for monocyte adhesion assay). *P<0.01 vs. control; #P<0.01 or <0.05 vs. ox-LDL group.
# It is known that the activation of LOX-1 by ox-LDL in endothelial cells stimulates the expression of leukocyte adhesion molecules^26. In this study, VCAM-1 expression in HUVECs in the presence of 5 μg/ml ox-LDL was measured. […] VCAM-1 mRNA expression in HUVECs exposed to 5 μg/mL ox-LDL for 6 hrs was also measured.
# HUVECs were plated into 6-well cell culture plates. When the cells were reached 70% confluence, they were treated with 200 nM of each of 5 molecules for 30 min, and subsequently exposed to […] ox-LDL for 6 h. After washing with PBS for 2 times, the cells were treated with Cell Lysis Buffer (Promega, Madison, Wis.) with protease Inhibitor and phosphatase Inhibitor (Sigma-Aldrich, St. Louis, Mo.). The protein concentrations were measured by Bradford protein assay. Proteins (20 tg) were separated by electrophoresis in 12% precast SDS-PAGE gels, and were transferred onto Nitrocellulose Blotting Membrane (GE Healthcare Life Science, Piscataway, N.J.). The membranes were then incubated with LOX-1, VCAM-1 (Abcam, Cambridge, Mass.), ERK1/2, phospho-ERK1/2, phospho-p38MAPK (Cell Signaling Technology, Inc., Danvers, Mass.), or […] (Santa Cruz Biotechnology, Inc., Dallas, Tex.) primary antibodies (1:1000˜1:2000) in blocking solution at 4° C. overnight. Following wash with TBS-1 for 3 times, the blots were incubated with HRP-conjugated secondary antibodies (1:10000) in blocking solution for 1 hour at room temperature. After 3 washes with PBS, the blots were treated with Western Blotting Luminol Reagents (Santa Cruz Biotechnology) for 3 min and then exposed to Blue Basic Autorad Film (GeneMate, Kaysville, Utah). The protein bands were scanned by a Gel Doc™ XR System (Bio-Rad, Hercules, Calif.), and the density of each band was quantified by Image J software. The relative expression of target proteins was calculated with comparison to […] bands.
Structure (SMILES),thermal shift (in words) (human LOX-1),effect on ox-LDL-induced VCAM-1 protein expression [1],thermal shift of LOX-1 protein (human LOX-1) [°],effect on ox-LDL-induced VCAM-1 protein expression ([1]; listed as MoL-4)
CCOCCCNC(=O)CCN1C(=O)COc2ccccc21 [Mol-1],did not show measurable shifts,significantly reduced,–,–
CC(C)(C)C(=O)NCCc1nc2ccccc2n1Cc1ccccc1F [Mol-2],did not show measurable shifts,–,–,–
CCCn1c(CCNC(=O)CCCO)nc2ccccc21 [Mol-4],significant thermal shift,significantly inhibited,10,significantly reduced
"Cc1cc(C)n(CC(O)COc2ccccc2)n1 (stereo not shown) [Mol-5, 1-(3,5-dimethyl-1H-pyrazol-1-yl)-3-phenoxypropan-2-ol]",significant thermal shift,significantly reduced; also recorded: significantly inhibited,4,–

# Reference: patent US11465972B2, “Inhibitors of oxidized low-density lipoprotein receptor 1 and methods of use thereof” (United States Government as represented by the Department …, priority 2015, dated 2022)
